Source: US5175338A, “Isocarbacyclin derivatives and their pharmaceutically acceptable salts thereof” (Teijin Limited, priority 1986, dated 1992)
Values after ≈ are worked out from the molar mass of the structure shown.

Experiments:
[1] = tested on: Platelet aggregation; assay: Platelet aggregation inhibiting activity in vitro (ADP-induced, rabbit platelet-rich plasma); assay type: cell-based, rabbits (Japanese native white male); settings: Oryctolagus cuniculus, rabbit PRP, ADP 10 μM, 37° C., minimum concentration at which inhibition exceeds 50%, read-out: Platelet aggregation inhibitory activity (IC50)
Description: The platelet aggregation inhibiting activity in vitro of each of the text compounds was assayed by using rabbits. Japanese native white male rabbits having a body weight of 2.5 to 3.5 kg were used. Blood was taken from the ear vein of the animals maintaining the 3.8% trisodium citrate/blood ratio at 1:9. The blood was centrifuged at 1,000 rpm for 10 minutes, and the upper layer was separated as PRP (platelet-rich plasma). The lower layer was further centrifuged at 2,800 rpm for 10 minutes. It separated into two layers. The upper layer was separated as PPP (platelet-poor plasma). The number of platelets was adjusted to 6×10^5 /microliter by dilution with PPP. Each of the test compounds was added in an amount of 25 microliters to 250 microliters of PRP after adjustment, and the mixture was subjected to preincubation at 37° C. for 2 minutes. Then ADP was added so that its final concentration was 10 μM, and variations in transmittance were recorded by using an agrigometer. The test compound was used after it was dissolved in ethanol to a concentration of 10 mg/ml and then serially diluted with phosphate buffer (pH 7.4). The percent inhibition of aggregation was calculated in accordance with the following equation. [formula] where
To is the transmittance of the system to which the test compound was not added, and
T is the transmittance of the system to which the test compound was added.
The minimum concentration of the compound at which the percent inhibition exceeds 50% is shown as IC50.

[2] = tested on: liver cell necrosis induced by carbon tetrachloride; assay: Effect (in vivo) on liver cell necrosis induced by carbon tetrachloride; inhibition of plasma GPT activity increase; set-up: species or system SD-strain male rats; settings: five administrations, 24 hours after CCl4 s.c., rat
Description: Effect (in vivo) on liver cell necrosis induced by carbon tetrachloride
Carbon tetrachloride and each of the test compounds were administered to SD-strain male rats (6 weeks old, body weight 170 to 200 g) by the following procedure. Blood was taken from the animals, and glutamic acid-pyruvic acid transferase (GPT) activity as an index of liver injury was measured by the ultraviolet absorbance measuring method (rate-optimum standard method), and the effect of the test compound was evaluated.
The rats were used in groups each consisting of 8 to 36 rats. The test compound was used as an aqueous 0.5% Tween 80-2.5% ethanol solution. […] The test compound was administered five times in total, i.e. 30 minutes before administration of carbon tetrachloride and 1, 2, 8 and 18 hours after administration of carbon tetrachloride. The carbon tetrachloride was subcutaneously administered as a 50% olive oil solution at a rate of […] of body weight (6670 mg/kg body weight as carbon tetrachloride). Before administration of carbon tetrachloride, the animals had been caused to abstain from food for about 18 hours.
Twenty-four hours after the administration of carbon tetrachloride, the rats were anesthetized with ether. Blood was drawn from the abdominal artery of the animals, and left to stand at room temperature for 1 hour and then centrifuged at 3,000 rpm for 15 minutes. The supernatant was used as a serum sample, and the GPT activity was measured.
The percent inhibition of the test compound on the increase of the plasma GPT activity increase by CCl4 was calculated in accordance with the following equation. [formula]

| Structure (SMILES) | IC50 [1] | Percent inhibition of the plasma GPT activity ([2]; 0.3 mg/kg p.o.) | Percent inhibition of the plasma GPT activity ([2]; 1.0 mg/kg p.o.) | Percent inhibition of the plasma GPT activity ([2]; 3.0 mg/kg p.o.) |
| --- | --- | --- | --- | --- |
| CCCCC(C)(O)C/C=C/[C@@H]1[C@H]2CC(CCCCC(=O)O)=C[C@H]2C[C@H]1O (stereo partly shown) [15-Deoxy-16-hydroxy-16-methylisocarbacyclin] | 0.37 µg/mL (≈ 1.02 µM) |  |  |  |
| CCCC[C@H](C)C[C@H](O)/C=C/[C@@H]1[C@H]2CC(CCCCC(=O)N[C@@H](CC(C)C)C(=O)O)=C[C@H]2C[C@H]1O [17(S),20-Dimethylisocarbacyclin L-leucine amide] | > 1000 µg/mL | 33% |  |  |
| CCCC[C@H](C)C[C@H](O)/C=C/[C@@H]1[C@H]2CC(CCCCC(=O)OCC(=O)O)=C[C@H]2C[C@H]1O [17(S),20-dimethylisocarbacyclin carboxymethyl ester] | 407 µg/mL (≈ 932 µM) |  | 44% | 39% |
| CCCCC[C@H](O)/C=C/[C@@H]1[C@H]2C/C(=C/CCCC(=O)O)O[C@H]2C[C@H]1O [Prostaglandin I2, reference compound] | 0.004 µg/mL (≈ 0.0113 µM) |  |  |  |
